Our source for the mortality values is patent publication US20210040041A1, “QUINOLINE DERIVATIVES AND PREPARATION METHODS AND USES THEREOF” (DONGGUAN HEC PESTICIDES R&D CO., LTD., priority 2018, published 2021).

Assay type in all cases: in vivo
The test system of one experiment is Diamondback moth. The experiment in a line: Test examples 2: leaf dipping method, Diamondback moth. The settings on record: Plutella xylostella, foliar, 72 h, after 3 days, read-out: The mortality rate (%) of the compound to Diamondback moth; for mortality at 12.5 µg/mL: 12.5 mg/L; for mortality at 25 µg/mL: 25 mg/L; for mortality at 50 µg/mL: 50 mg/L. How it is done:
(§1) A certain amount of compound (0.0001 g) was weighed by using an analytical balance, and prepared to a mother liquid (1%) with N, N-dimethylformamide containing 1% Tween-80 emulsifier, and then the mother liquid was diluted with distilled water for standby.
(§2) Leaf dipping method: an appropriate amount of corn leaves/cabbage/cowpea were infiltrated in the prepared liquid and dried in the shade naturally, and then placed in a culture dish with filter paper; armyworm/Diamondback moth/Beet Armyworm larvae in the 2-3rd instar were inoculated to the corn leaves, 10 heads per dish, and the dishes were cultured in an observation room at 24-27° C. The results were investigated after 3 days. […] The test concentrations were 50 mg/L, 25 mg/L, 12.5 mg/L, 6.25 mg/L, 3.13 mg/L, 1.56 mg/L.

In a further experiment the test system is Armyworm. The experiment in a line: Test examples 2: leaf dipping method, Armyworm. The settings on record: Mythimna separata, foliar, 72 h, after 3 days, read-out: The mortality rate (%) of the compound to Armyworm; for mortality at 12.5 µg/mL: 12.5 mg/L; for mortality at 25 µg/mL: 25 mg/L; for mortality at 50 µg/mL: 50 mg/L. How it is done:
as §1, §2

In experiment [1] the test system is Frankliniella occidentalis. As to the kind of experiment: Test examples 2: spraying of cowpea leaf discs, Frankliniella occidentalis. The conditions noted are these: foliar, 24 h, after 1 day, read-out: The mortality rate (%) of the compound to Frankliniella occidentalis; for mortality at 5 µg/mL: 5 mg/L; for mortality at 10 µg/mL: 10 mg/L; for mortality at 20 µg/mL: 20 mg/L. On the procedure:
as §1
Spraying: cowpea leaves growing uniformity were punched with a punching bear to make leaf discs, leaf discs were placed onto degreased cotton blocks in a dish, two leaf discs per dish, and water was added into the dish and it was flush with the leaf discs, and the dish was for standby. Frankliniella occidentalis in the 2-3rd instar were inoculated to the ready leaf discs, more than 15 per disc. Which were spayed under Potter spray tower at a dose of 0.5 mL per treatment. The blank control was treated first, and then the above operations were repeated in the order of the test dose from low to high, with 2 repeats per treatment. After treatment, the samples were placed in the observation room, and the results were investigated 1 day later. […] The test concentrations were 20 mg/L, 10 mg/L, 5.0 mg/L, 2.5 mg/L, 1.25 mg/L, 0.625 mg/L.

The test system of the next experiment is Beet Armyworm. As to the kind of experiment: Test examples 2: leaf dipping method, Beet Armyworm. The settings on record: Spodoptera exigua, foliar, 72 h, after 3 days, read-out: The mortality rate (%) of the compound to Beet Armyworm; for mortality at 12.5 µg/mL: 12.5 mg/L; for mortality at 25 µg/mL: 25 mg/L; for mortality at 50 µg/mL: 50 mg/L. How it is done: as §1, §2

In the case of `CCc1nc2cc(C)c(Oc3ccc(C(C)(C)C)cc3)cc2c(OC(=O)OCCOC)c1C` [Example 4, 6-(4-(tert-butyl)phenoxy)-2-ethyl-3,7-dimethylquinolin-4-yl (2-methoxyethyl)carbonate], in the experiment on Diamondback moth, the mortality (usually the percentage killed) at 12.5 µg/mL was 90%, the mortality at 25 µg/mL was 100% and the mortality at 50 µg/mL worked out at 100%. Also, in the experiment with Armyworm, the mortality at 12.5 µg/mL was 80%, the mortality at 25 µg/mL came out at 90% and the mortality at 50 µg/mL is 100%.
As to `CCc1nc2cc(C)c(Oc3ccc(OC(F)(F)F)cc3)cc2c(OC(=O)OCCOCCOC)c1C` [Example 7], in the experiment with Diamondback moth, the mortality at 12.5 µg/mL is 85%, the mortality at 25 µg/mL was 90% and the mortality at 50 µg/mL was determined as 100%. In the experiment on Armyworm, the mortality at 12.5 µg/mL is 100%, the mortality at 25 µg/mL was found to be 100% and the mortality at 50 µg/mL was 100%. For the same compound, in experiment [1], the mortality at 5 µg/mL came to 95%, the mortality at 10 µg/mL came out at 100% and the mortality at 20 µg/mL came to 100%. Further, in the experiment with Beet Armyworm, the mortality at 12.5 µg/mL was 80%, the mortality at 25 µg/mL stood at 100% and the mortality at 50 µg/mL was 100%.
As for `CCc1nc2cc(C)c(Oc3ccc(OC(F)(F)F)cc3)cc2c(OC(=O)OCC2CCCO2)c1C` (stereo not drawn) [Example 8], in the experiment with Diamondback moth, the mortality at 12.5 µg/mL amounted to 93%, the mortality at 25 µg/mL amounted to 100% and the mortality at 50 µg/mL is 100%. Besides, in the experiment on Armyworm, the mortality at 12.5 µg/mL came out at 100%, the mortality at 25 µg/mL turned out to be 100% and the mortality at 50 µg/mL was found to be 100%. For the same compound, in experiment [1], the mortality at 5 µg/mL worked out at 85%, the mortality at 10 µg/mL is 100% and the mortality at 20 µg/mL worked out at 100%. Further, in the experiment on Beet Armyworm, the mortality at 12.5 µg/mL was 70%, the mortality at 25 µg/mL was 95% and the mortality at 50 µg/mL was 100%.
`CCOCCOC(=O)Oc1c(C)c(CC)nc2cc(C)c(Oc3ccc(OC(F)(F)F)cc3)cc12` [Example 17, 2-ethoxyethyl (2-ethyl-3,7-dimethyl-6-(4-(trifluoromethoxy)phenoxy)quinolin-4-yl) carbonate]: in the experiment on Diamondback moth, the mortality at 12.5 µg/mL was found to be 100%, the mortality at 25 µg/mL stood at 100% and the mortality at 50 µg/mL amounted to 100%. Besides, in the experiment with Armyworm, the mortality at 12.5 µg/mL was found to be 100%, the mortality at 25 µg/mL came out at 100% and the mortality at 50 µg/mL came out at 100%.
Consider `CCc1nc2cc(C)c(Oc3ccc(OC(F)(F)F)cc3)c(C)c2c(OC(=O)OCCOC)c1C` [Example 18, 2-ethyl-3,5,7-trimethyl-6-(4-(trifluoromethoxy)phenoxy)quinolin-4-yl (2-methoxyethyl) carbonate], for which, in the experiment on Diamondback moth, the mortality at 12.5 µg/mL was found to be 100%, the mortality at 25 µg/mL stood at 100% and the mortality at 50 µg/mL was found to be 100%. Also, in the experiment with Armyworm, the mortality at 12.5 µg/mL stood at 100%, the mortality at 25 µg/mL was found to be 100% and the mortality at 50 µg/mL came out at 100%. In experiment [1], the mortality at 5 µg/mL is 100%, the mortality at 10 µg/mL came out at 100% and the mortality at 20 µg/mL was 100%. Further, in the experiment on Beet Armyworm, the mortality at 12.5 µg/mL worked out at 90%, the mortality at 25 µg/mL came to 100% and the mortality at 50 µg/mL was 100%.
In the case of `CCc1nc2ccc(Oc3ccc(C(C)(C)C)cc3)c(C)c2c(OC(=O)OCCOC)c1C` [Example 22, 6-(4-(tert-butyl)phenoxy)-2-ethyl-3,5-dimethylquinolin-4-yl (2-methoxyethyl) carbonate], in the experiment with Diamondback moth, the mortality at 12.5 µg/mL amounted to 85%, the mortality at 25 µg/mL is 90% and the mortality at 50 µg/mL amounted to 100%. In addition, in the experiment on Armyworm, the mortality at 12.5 µg/mL came out at 80%, the mortality at 25 µg/mL is 95% and the mortality at 50 µg/mL was 100%.
For the compound `CCc1nc2cc(C)c(Oc3ccc(C(C)(C)C)cc3)c(C)c2c(OC(=O)OCCOC)c1C` [Example 26, 6-(4-(tert-butyl)phenoxy)-2-ethyl-3,5,7-trimethylquinolin-4-yl (2-methoxyethyl) carbonate], in the experiment on Diamondback moth, the mortality at 12.5 µg/mL was 85%, the mortality at 25 µg/mL was found to be 95% and the mortality at 50 µg/mL is 100%. Also, in the experiment on Armyworm, the mortality at 12.5 µg/mL is 90%, the mortality at 25 µg/mL stood at 100% and the mortality at 50 µg/mL was determined as 100%.
Take `CCc1nc2ccc(Oc3ccc(C(C)(C)C)cc3)c(C)c2c(OC(=O)OCC2CCCO2)c1C` (stereo not drawn) [Example 35, 6-(4-(tert-butyl)phenoxy)-2-ethyl-3,5-dimethylquinolin-4-yl ((tetrahydrofuran-2-yl)methyl) carbonate]: in the experiment on Diamondback moth, the mortality at 12.5 µg/mL was 80%, the mortality at 25 µg/mL was 90% and the mortality at 50 µg/mL came out at 100%. For the same compound, in the experiment on Armyworm, the mortality at 12.5 µg/mL amounted to 80%, the mortality at 25 µg/mL was determined as 95% and the mortality at 50 µg/mL was 100%.
For `CCc1nc2cc(C)c(Oc3ccc(C(C)(C)C)cc3)c(C)c2c(OC(=O)OCC2CCCO2)c1C` (stereo not drawn) [Example 36, 6-(4-(tert-butyl)phenoxy)-2-ethyl-3,5,7-trimethylquinolin-4-yl ((tetrahydrofuran-2-yl)methyl) carbonate], in the experiment on Diamondback moth, the mortality at 12.5 µg/mL is 85%, the mortality at 25 µg/mL is 95% and the mortality at 50 µg/mL came to 100%. In addition, in the experiment on Armyworm, the mortality at 12.5 µg/mL was 90%, the mortality at 25 µg/mL came to 100% and the mortality at 50 µg/mL is 100%.
Consider `CCc1nc2cc(C)c(Oc3ccc(OC(F)(F)F)cc3)c(C)c2c(OC(=O)OCC2CCCO2)c1C` (stereo not drawn) [Example 37], for which, in the experiment with Diamondback moth, the mortality at 12.5 µg/mL is 95%, the mortality at 25 µg/mL came out at 100% and the mortality at 50 µg/mL worked out at 100%. Further, in the experiment with Armyworm, the mortality at 12.5 µg/mL was 100%, the mortality at 25 µg/mL stood at 100% and the mortality at 50 µg/mL worked out at 100%. In addition, in experiment [1], the mortality at 5 µg/mL came out at 95%, the mortality at 10 µg/mL is 100% and the mortality at 20 µg/mL worked out at 100%. Also, in the experiment on Beet Armyworm, the mortality at 12.5 µg/mL was found to be 75%, the mortality at 25 µg/mL worked out at 100% and the mortality at 50 µg/mL came out at 100%.
As for `CCc1nc2ccc(Oc3ccc(OC(F)(F)F)cc3)c(C)c2c(OC(=O)OCCOC)c1C` [Example 39, 2-ethyl-3,5-dimethyl-6-(4-(trifluoromethoxy)phenoxy)quinolin-4-yl (2-methoxyethyl) carbonate], in the experiment on Diamondback moth, the mortality at 12.5 µg/mL was 100%, the mortality at 25 µg/mL came to 100% and the mortality at 50 µg/mL came out at 100%. In addition, in the experiment with Armyworm, the mortality at 12.5 µg/mL worked out at 100%, the mortality at 25 µg/mL was 100% and the mortality at 50 µg/mL amounted to 100%.
`CCOCCOC(=O)Oc1c(C)c(CC)nc2cc(C)c(Oc3ccc(OC(F)(F)F)cc3)c(C)c12` [Example 40, 2-ethoxyethyl (2-ethyl-3,5,7-trimethyl-6-(4-(trifluoromethoxy)phenoxy)quinolin-4-yl) carbonate]: in the experiment on Diamondback moth, the mortality at 12.5 µg/mL was determined as 95%, the mortality at 25 µg/mL amounted to 100% and the mortality at 50 µg/mL worked out at 100%. In the experiment on Armyworm, the mortality at 12.5 µg/mL was 95%, the mortality at 25 µg/mL was found to be 100% and the mortality at 50 µg/mL amounted to 100%.
With `CCc1nc2cc(C)c(Oc3ccc(OC(F)(F)F)cc3)c(C)c2c(OC(=O)OCCOC(C)C)c1C` [Example 41, 2-ethyl-3,5,7-trimethyl-6-(4-(trifluoromethoxy)phenoxy)quinolin-4-yl (2-isopropoxyethyl) carbonate], in the experiment on Diamondback moth, the mortality at 12.5 µg/mL is 90%, the mortality at 25 µg/mL is 100% and the mortality at 50 µg/mL was found to be 100%. Further, in the experiment on Armyworm, the mortality at 12.5 µg/mL was 80%, the mortality at 25 µg/mL amounted to 100% and the mortality at 50 µg/mL came to 100%.
